Patent US11236084B2, “Substituted azaindoline derivatives as NIK inhibitors” (Janssen Pharmaceutica NV, priority 2017, dated 2022)
pIC50: −log10 of the molar value. Like-named read-outs stand apart in the source and are kept apart here.

Columns and labels:
[1] = test system: P-IKKα levels in L363 (NIK translocated multiple myeloma) cells; experiment: Biological Assay C: effect of compounds on P-IKKα levels in L363 (NIK translocated multiple myeloma) cells, performed at 2 locations; type: cell-based, human; settings: Homo sapiens, L-363, location 2; L363 cells, P-IKKα levels; averaged values; read-out: Assay C location 2 IC50
Protocol: Effect of Compounds on P-IKKα Levels in L363 (NIK Translocated Multiple Myeloma) Cells
All compounds tested were dissolved in DMSO and further dilutions were made in culture medium. Final DMSO concentration was 1% (v/v) in cell assays. The human L363 cells (ATCC) were cultured in RPMI 1640 medium supplemented with GlutaMax and 10% fetal calf serum (PAA). Cells were routinely maintained at densities of 0.2×10^6 cells per ml-1×10^6 cells per ml at 37° C. in a humidified 5% CO2 atmosphere. Cells were passaged twice a week splitting back to obtain the low density. Cells were seeded in 96 well plates (Nunc 167008) at 2×10^6 per ml media in a volume of 75 μl per well plus 25 μl […] recombinant human B-cell activating factor (BAFF/BLyS/TNFSF13B). Seeded cells were incubated at 37° C. in a humidified 5% CO2 atmosphere for 24 hr. Drugs and/or solvents were added (20 μl) to a final volume of 120 μl. Following 2 hr treatment plates were removed from the incubator and cell lysis was achieved by the addition of 30 μl 5× lysis buffer followed by shaking on a plate shaker at 4° C. for 10 min. At the end of this incubation lysed cells were centrifuged at 800×g for 20 min at 4° C. and the lysate was assessed for P-IKKα levels by sandwich immuno-assay carried out in anti-rabbit antibody coated Mesoscale plates. Within an experiment, the results for each treatment were the mean of 2 replicate wells. For initial screening purposes, compounds were tested using an 8 point dilution curve (serial 1:3 dilutions). For each experiment, controls (containing MG132 and BAFF but no test drug) and a blank incubation (containing MG132 and BAFF and 1 μM ADS125117, a test concentration known to give full inhibition) were run in parallel. The blank incubation value was subtracted from all control and sample values. To determine the IC50 a sigmoidal curve was fitted to the plot of % inhibition of control P-IKKα levels versus Log10 compound concentration.
Assay C was performed at 2 different locations.
Data for the compounds of the invention in the above assays are provided in Table A (the values in Table are averaged values over all measurements on all batches of a compound; values as IC50 (nM)). (‘n.c.’ means not calculated: ‘Co.’ means compound)

[2] = molecular target: recombinant human NF-kappaB-inducing kinase (NIK/MAP3K14) (Homo sapiens, UniProt Q99558); experiment: Biological Assay B: inhibition of auto-phosphorylation of recombinant human NIK/MAP3K14 (AlphaScreen), performed at 2 locations; type: biochemical; settings: averaged values
Outline: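 GST-tagged NIK (0.2 nM) auto-phosphorylation with 25 microM ATP in 50 mM Tris pH 7.5, 5 mM MgCl2, 1% DMSO, 1 h at 25° C. Anti-phospho-IKK Ser176/180 AlphaScreen readout; blank-subtracted IC50 from sigmoidal fit. Run at two sites.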

[3] = location 1, AlphaScreen auto-phosphorylation, read-out: Assay B location 1 IC50
[4] = location 2, AlphaScreen auto-phosphorylation, read-out: Assay B location 2 IC50
[5] = location 2, NIK auto-phosphorylation, AlphaScreen, read-out: Assay B location 2 IC50

Sequence of recombinant human NF-kappaB-inducing kinase (NIK/MAP3K14) (Q99558 whole entry): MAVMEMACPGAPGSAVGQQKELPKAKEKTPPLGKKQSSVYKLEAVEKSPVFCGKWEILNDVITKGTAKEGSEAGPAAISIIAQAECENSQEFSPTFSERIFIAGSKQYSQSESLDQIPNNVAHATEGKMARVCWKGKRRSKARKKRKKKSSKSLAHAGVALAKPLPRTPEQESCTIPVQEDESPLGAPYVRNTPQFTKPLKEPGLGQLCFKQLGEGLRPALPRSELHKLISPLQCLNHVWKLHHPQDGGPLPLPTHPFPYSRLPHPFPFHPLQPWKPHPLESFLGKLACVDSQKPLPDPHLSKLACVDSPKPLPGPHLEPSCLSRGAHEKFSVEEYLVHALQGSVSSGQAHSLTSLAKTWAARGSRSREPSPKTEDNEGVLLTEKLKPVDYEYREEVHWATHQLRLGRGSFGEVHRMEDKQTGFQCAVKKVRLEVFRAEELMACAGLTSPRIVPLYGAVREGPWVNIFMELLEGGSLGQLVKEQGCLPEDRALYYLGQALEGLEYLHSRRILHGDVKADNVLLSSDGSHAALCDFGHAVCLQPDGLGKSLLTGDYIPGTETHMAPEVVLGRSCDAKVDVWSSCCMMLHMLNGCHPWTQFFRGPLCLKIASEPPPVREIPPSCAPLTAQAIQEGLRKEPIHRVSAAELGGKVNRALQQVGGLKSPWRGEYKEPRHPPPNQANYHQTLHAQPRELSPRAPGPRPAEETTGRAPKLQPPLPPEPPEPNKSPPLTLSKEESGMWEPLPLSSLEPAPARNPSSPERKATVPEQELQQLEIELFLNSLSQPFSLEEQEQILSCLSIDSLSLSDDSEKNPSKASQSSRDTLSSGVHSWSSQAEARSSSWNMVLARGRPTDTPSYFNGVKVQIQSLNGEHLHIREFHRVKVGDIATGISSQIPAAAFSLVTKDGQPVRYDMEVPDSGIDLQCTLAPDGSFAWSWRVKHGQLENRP

| pIC50 [2, 3] | pIC50 [2, 4] | also measured | SMILES |
| --- | --- | --- | --- |
| – | – | pIC50 [1]: 6.07 | Cc1cc(C(=O)NC2CCN(C)CC2)ccc1Nc1nccc(-c2cnc3c(c2)C(C)(C)CN3)n1 [Compound 35] |
| – | – | pIC50 [1]: 6.21 | Cc1cc(C(=O)NC2CCOCC2)ccc1Nc1nccc(-c2cnc3c(c2)C(C)(C)CN3)n1 [Compound 36] |
| – | – | pIC50 [1]: 6.78 | CC(=O)NCc1cccc(Nc2nccc(-c3cnc4c(c3)C(C)(C)CN4)n2)c1C [Compound 42] |
| – | – | pIC50 [1]: 6.55 | CC(=O)NCc1ccc(C)c(Nc2nccc(-c3cnc4c(c3)C(C)(C)CN4)n2)c1 [Compound 43] |
| 8.28 | 8.92 | – | COc1cc(C(=O)N2CCC(OC)CC2)c(Cl)cc1Nc1nccc(-c2cnc3c(c2)C(C)(CO)CN3)n1 (stereo not drawn) [Compound 296] |
| – | 8.77 | – | COc1cc(N2CC(O)C2)c(Cl)cc1Nc1nccc(-c2cnc3c(c2)C(C)(CO)CN3)n1 (stereo not drawn) [Compound 302] |
| 7.74 | 8.23 | – | COc1cc(N2CC(C)(C)C2)c(Cl)cc1Nc1nccc(-c2cnc3c(c2)C(C)(CO)CN3)n1 (stereo not drawn) [Compound 304] |
| 7.91 | 8.51 | – | COc1c(Nc2nccc(-c3cnc4c(c3)C(C)(CO)CN4)n2)cc(Cl)cc1N1CCOCC1 (stereo not drawn) [Compound 307] |
| 8.17 | 8.66 | – | COc1cc(N2CCN(C3CC3)CC2)c(Cl)cc1Nc1nccc(-c2cnc3c(c2)C(C)(CO)CN3)n1 (stereo not drawn) [Compound 309] |
| 8.41 | 9.05 | – | COCCN1CCN(c2cc(OC)c(Nc3nccc(-c4cnc5c(c4)C(C)(CO)CN5)n3)cc2Cl)CC1 (stereo not drawn) [Compound 311] |
| 8.16 | 8.31 | – | COc1cc(N2CC(C)(O)C2)c(Cl)cc1Nc1nccc(-c2cnc3c(c2)C(C)(CO)CN3)n1 (stereo not drawn) [Compound 313] |
| 8.39 | 8.51 | – | COc1cc(OCCN(C)C)c(Cl)cc1Nc1nccc(-c2cnc3c(c2)C(C)(CO)CN3)n1 (stereo not drawn) [Compound 314] |
| 8.80 | 8.77 | – | COc1cc(C2CCN(C)CC2)c(Cl)cc1Nc1nccc(-c2cnc3c(c2)C(C)(CO)CN3)n1 (stereo not drawn) [Compound 317] |
| 8.31 | 8.82 | – | CCN1CCN(c2cc(OC)c(Nc3nccc(-c4cnc5c(c4)C(C)(CO)CN5)n3)cc2C)CC1 (stereo not drawn) [Compound 318] |
| 8.38 | 8.92 | – | COCCN1CCC(c2cc(OC)c(Nc3nccc(-c4cnc5c(c4)C(C)(CO)CN5)n3)cc2Cl)CC1 (stereo not drawn) [Compound 319] |
| 8.57 | 9.00 | – | COc1cc(OCCN2CCN(C)CC2)c(Cl)cc1Nc1nccc(-c2cnc3c(c2)C(C)(CO)CN3)n1 (stereo not drawn) [Compound 320] |
| 8.44 | 8.80 | – | COCCN1CC(c2cc(OC)c(Nc3nccc(-c4cnc5c(c4)C(C)(CO)CN5)n3)cc2Cl)C1 (stereo not drawn) [Compound 321] |
| – | 8.77 | – | COc1cc(OCC(=O)N(C)C)c(Cl)cc1Nc1nccc(-c2cnc3c(c2)C(C)(CO)CN3)n1 (stereo not drawn) [Compound 322] |
| 7.64 | 8.14 | – | COCC(C)(C)CNc1cc(OC)c(Nc2nccc(-c3cnc4c(c3)C(C)(CO)CN4)n2)cc1F (stereo not drawn) [Compound 323] |
| 8.10 | 8.42 | – | COc1cc(CN2CCOCC2)c(Cl)cc1Nc1nccc(-c2cnc3c(c2)C(C)(CO)CN3)n1 (stereo not drawn) [Compound 324] |
| – | 8.44 | – | COc1cc(N2CCC(O)C2)c(Cl)cc1Nc1nccc(-c2cnc3c(c2)C(C)(CO)CN3)n1 (stereo not drawn) [Compound 325] |
| 8.20 | 8.64 | – | COc1cc(N2CCC(OC)CC2)c(Cl)cc1Nc1nccc(-c2cnc3c(c2)C(C)(CO)CN3)n1 (stereo not drawn) [Compound 327] |
| – | 8.82 | – | CCN1CCN(C(=O)c2cc(OC)c(Nc3nccc(-c4cnc5c(c4)C(C)(CO)CN5)n3)cc2Cl)CC1 (stereo not drawn) [Compound 328] |

| pIC50 [2, 3] | pIC50 [2, 4] | also measured | SMILES |
| --- | --- | --- | --- |
| 8.42 | 8.77 | – | CCN1CCN(c2cc(OC)c(Nc3nccc(-c4cnc5c(c4)C(C)(C)CN5)n3)cc2Cl)CC1 [Compound 329] |
| 8.44 | 9.15 | – | COc1cc(N2CCC(N(C)C)CC2)c(Cl)cc1Nc1nccc(-c2cnc3c(c2)C(C)(C)CN3)n1 [Compound 330] |
| – | 8.96 | – | COc1cc(CO)c(Cl)cc1Nc1nccc(-c2cnc3c(c2)C(C)(CO)CN3)n1 (stereo not drawn) [Compound 332] |
| – | 8.66 | – | COc1cc(N2CCC(C)(O)CC2)c(Cl)cc1Nc1nccc(-c2cnc3c(c2)C(C)(CO)CN3)n1 (stereo not drawn) [Compound 333] |
| – | – | pIC50 [2, 5]: 8.44 | COc1cc(N2CCC(O)CC2)c(Cl)cc1Nc1nccc(-c2cnc3c(c2)C(C)(C)CN3)n1 [Compound 336] |
| – | – | pIC50 [2, 5]: 8.80 | CCN1CCN(Cc2cc(OC)c(Nc3nccc(-c4cnc5c(c4)C(C)(CO)CN5)n3)cc2Cl)CC1 (stereo not drawn) [Compound 337] |
| – | – | pIC50 [2, 5]: 8.25 | COc1cc(CO)c(Cl)cc1Nc1nccc(-c2cnc3c(c2)C(C)(C)CN3)n1 [Compound 339] |
| – | – | pIC50 [2, 5]: 8.59 | COc1cc(OCCN2CCOCC2)c(Cl)cc1Nc1nccc(-c2cnc3c(c2)C(C)(CO)CN3)n1 (stereo not drawn) [Compound 340] |
| – | – | pIC50 ([2]; location 1, NIK auto-phosphorylation, AlphaScreen, read-out: Assay B location 1 IC50): 8.13 | COc1cc(N2CC3(CCOCC3)C2)c(Cl)cc1Nc1ncc(F)c(-c2cnc3c(c2)C(C)(CO)CN3)n1 (stereo not drawn) [Compound 346] |
| 7.92 | 8.00 | – | CCOC1CN(c2cc(OC)c(Nc3nccc(-c4cnc5c(c4)C(C)(CO)CN5)n3)cc2Cl)C1 (stereo not drawn) [Compound 357] |
| 8.11 | 8.43 | – | Cc1cc(N2CCOCC2)c(Cl)cc1Nc1nccc(-c2cnc3c(c2)C(C)(CO)CN3)n1 (stereo not drawn) [Compound 361] |
| 8.16 | 8.44 | – | CC1(CO)CNc2ncc(-c3ccnc(Nc4cc(Cl)c(N5CCOCC5)cc4Cl)n3)cc21 (stereo not drawn) [Compound 362] |
| 7.75 | 7.97 | – | Cc1cc(N2CCOCC2)c(C#N)cc1Nc1nccc(-c2cnc3c(c2)C(C)(CO)CN3)n1 (stereo not drawn) [Compound 363] |
| 7.99 | 8.16 | – | CC1(CO)CNc2ncc(-c3ccnc(Nc4cc(C#N)c(N5CCOCC5)cc4Cl)n3)cc21 (stereo not drawn) [Compound 364] |
| 7.86 | 7.96 | – | CC1(CO)CNc2ncc(-c3ccnc(Nc4cc(F)c(N5CCOCC5)cc4Cl)n3)cc21 (stereo not drawn) [Compound 365] |
| 7.64 | 7.89 | – | Cc1cc(N2CCOCC2)c(F)cc1Nc1nccc(-c2cnc3c(c2)C(C)(CO)CN3)n1 (stereo not drawn) [Compound 366] |
| 7.06 | 7.66 | – | COCCOc1cc(N2CCOCC2)c(Cl)cc1Nc1nccc(-c2cnc3c(c2)C(C)(CO)CN3)n1 (stereo not drawn) [Compound 367] |
| 6.72 | 6.95 | – | COCCOc1cc(N2CCOCC2)c(F)cc1Nc1nccc(-c2cnc3c(c2)C(C)(CO)CN3)n1 (stereo not drawn) [Compound 368] |
| 6.91 | 7.19 | – | COCCOc1cc(N2CCOCC2)c(C#N)cc1Nc1nccc(-c2cnc3c(c2)C(C)(CO)CN3)n1 (stereo not drawn) [Compound 369] |
| 5.79 | 6.01 | – | CN(C)CCOc1cc(N2CCOCC2)c(F)cc1Nc1nccc(-c2cnc3c(c2)C(C)(CO)CN3)n1 (stereo not drawn) [Compound 370] |
| 6.36 | 6.68 | – | CN(C)CCOc1cc(N2CCOCC2)c(Cl)cc1Nc1nccc(-c2cnc3c(c2)C(C)(CO)CN3)n1 (stereo not drawn) [Compound 371] |
| 7.87 | 8.80 | – | COc1cc(N2CC3(CCOCC3)C2)c(C#N)cc1Nc1nccc(-c2cnc3c(c2)C(C)(CO)CN3)n1 (stereo not drawn) [Compound 372] |
